Data: ChEMBL document CHEMBL1139988, “Discovery of structurally diverse HIV-1 integrase inhibitors based on a chalcone pharmacophore” (Bioorg Med Chem, 2007)
pIC50: −log10 of the molar value. Where “and” joins values, the source holds several entries; their conditions need not be identical. Identical values can stand only once.

Legend:
[1] = molecular target: T1, Human immunodeficiency virus type 1 integrase (Human immunodeficiency virus 1, UniProt Q7ZJM1); experiment: Inhibition of HIV1 integrase 3'-end processing activity
T1 sequence (Q7ZJM1 whole entry): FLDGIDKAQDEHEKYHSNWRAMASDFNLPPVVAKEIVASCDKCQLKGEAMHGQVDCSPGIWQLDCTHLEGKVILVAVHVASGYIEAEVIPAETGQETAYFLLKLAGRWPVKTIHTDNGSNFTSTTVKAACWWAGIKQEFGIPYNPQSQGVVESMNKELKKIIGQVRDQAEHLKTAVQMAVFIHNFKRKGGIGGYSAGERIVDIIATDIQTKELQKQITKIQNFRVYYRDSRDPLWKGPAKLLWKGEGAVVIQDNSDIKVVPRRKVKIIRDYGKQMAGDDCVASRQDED

[2] = molecular target: T1, Human immunodeficiency virus type 1 integrase; experiment: Inhibition of HIV1 integrase strand transfer activity
[3] = molecular target: T1, Human immunodeficiency virus type 1 integrase; experiment: Inhibition of HIV1 integrase 3'-end processing activity in presence of magnesium cofactor
[4] = molecular target: T1, Human immunodeficiency virus type 1 integrase; experiment: Inhibition of HIV1 integrase strand transfer activity in presence of magnesium cofactor

| pIC50 [1] | pIC50 [2] | pIC50 [3] | pIC50 [4] | Structure (SMILES) |
| --- | --- | --- | --- | --- |
| 4.28 | 4.33 | – | – | O=C(/C=C/c1ccccc1O)c1ccc(O)cc1O |
| < 4.00 | 4.41 | – | – | COc1ccc(/C=C/C(=O)c2ccc(O)cc2O)cc1 |
| 3.51 | 3.89 | – | – | Cc1cc(O)nc(SCC(=O)c2ccc(O)c(O)c2)n1 |
| < 4.00 | < 4.00 | – | – | O=C(/C=C/c1ccc2c(c1)OCO2)c1ccccc1 |
| < 4.00 | 4.05 | – | – | O=C(/C=C/c1cccc(NC(=O)c2cccs2)c1)c1ccccc1 |
| < 4.00 | 4.04 | – | – | O=C(/C=C/c1ccccc1OC(=O)c1cc2ccccc2oc1=O)c1ccccc1 |
| < 4.00 | < 4.00 | – | – | COc1ccc(OC)c(C(=O)/C=C/c2ccc3c(c2)OCO3)c1 |
| < 4.00 | < 4.00 | – | – | COc1cc(OC)c(C(=O)/C=C/c2cccc([N+](=O)[O-])c2)cc1OC |
| 3.17 | 3.14 | – | – | Cc1ccc(NCC(=O)N/N=C/c2cccc(OC(=O)c3ccc4c(c3)OCO4)c2)cc1 |
| 4.00 | 4.18 | – | – | CCCn1c(=O)c(C(=O)NNC(=O)c2ccccc2)c(O)c2ccccc21 |
| 5.22 | 5.40 | 4.77 | 5.02 | CCOc1ccc(-c2c(C#N)c(N)nc(SCC(=O)c3cc4cc(Br)cc(Br)c4oc3=O)c2C#N)cc1 |
| 4.19 | 4.22 | – | – | CCCOc1ccc(/C=N/NC2=NC(c3ccccc3O)CC(c3ccccc3)=N2)c(O)c1 (configuration not stated) |
| 4.11 | 4.31 | – | – | O=c1nc2n(-c3ccc(Cl)cc3)c3ccc([N+](=O)[O-])cc3cc-2c(=O)[nH]1 |
| < 4.00 | 4.05 | – | – | CCCC(=O)NC(c1ccc(OC)c(OC)c1)c1cc(Cl)c2cccnc2c1O (configuration not stated) |
| 4.44 | 4.52 | – | – | CCn1c(=O)c(C(=O)NNC(=O)c2ccccc2[N+](=O)[O-])c(O)c2ccccc21 |
| 4.13 | 4.14 | – | – | Cc1cc(C)cc(OCC(=O)NNC(=O)c2cc3ccccc3oc2=O)c1 |
| 4.02 | 4.15 | – | – | O=C(Nc1nccs1)/C(O)=C/C(=O)c1ccc(Cl)cc1 |
| 4.74 | 4.92 | – | – | O=C(COc1ccc2ccccc2c1)NNC(=O)c1cc2ccccc2cc1O |
| < 4.00 | < 4.00 | – | – | O=C(NC1CCCCC1)C(c1ccco1)N(C(=O)Cn1nnc2ccccc21)c1ccc(S(=O)(=O)NCC2CCCO2)cc1 (configuration not stated) |
| 4.49 | 4.70 | – | – | CCn1c(=O)c(C(=O)NNC(=O)c2ccc([N+](=O)[O-])cc2)c(O)c2ccccc21 |
| 4.39 | 4.37 | – | – | Nc1ccc(C(=O)CC(=O)Nc2cc(C(=O)O)cc(C(=O)O)c2)cc1 |
| 3.07 | 3.10 | – | – | O=C(Oc1ccc(/C=N/Nc2nnc3c(n2)[nH]c2ccccc23)cc1)c1ccc(Br)cc1 |
| 4.38 | 4.48 | – | – | COc1cccc(C(=O)NNC(=O)c2ccc3ccccc3c2O)c1 |
| < 4.00 | 4.32 | – | – | CCCn1c(=O)c(C(=O)NNC(=O)CC(=O)OCC)c(O)c2ccccc21 |
| 4.06 | 4.11 | – | – | O=C(CSc1nc(O)c2ccccc2n1)c1ccc(O)c(O)c1 |
| 3.71 | 3.66 | – | – | Oc1ccc(Cl)cc1/C=C/c1ccc2cccc(O)c2n1 |

| pIC50 [1] | pIC50 [2] | pIC50 [3] | pIC50 [4] | Structure (SMILES) |
| --- | --- | --- | --- | --- |
| 3.52 | 4.08 | – | – | Oc1ccc(-c2csc(Nc3ncccn3)n2)cc1O |
| < 4.00 | 4.44 | – | – | O=C1Nc2ccccc2/C1=N\NC(=O)c1ccc(O)cc1O |
| 5.72 | 6.22 | – | – | O=[N+]([O-])c1cc(Br)cc(/C=N/Nc2nc(Nc3ccccc3)nc(Nc3ccccc3)n2)c1O |
| 4.08 | 4.08 | – | – | Cc1ccc(NC(=O)CN2C(=O)/C(=N\NC(=O)c3ccc4ccccc4n3)c3ccccc32)cc1 |
| 4.09 | 4.43 | – | – | CNc1nc(N/N=C/c2ccc(-c3ccc([N+](=O)[O-])cc3OC)o2)nc(Nc2ccccc2)n1 |
| 3.84 | 4.09 | – | – | CCOc1cc(Br)cc(/C=N/c2ncccc2O)c1O |
| 4.04 | 4.60 | – | – | O=C(CSc1nnc(-c2ccncc2)[nH]1)c1ccc(O)cc1O |
| 3.56 | 4.05 | – | – | Nc1cc(O)nc(SCC(=O)c2ccc(O)c(O)c2)n1 |
| 4.19 | 4.24 | – | – | CCCc1nc2ccccc2c(=O)n1NC(=O)c1c(O)c2cccc3c2n(c1=O)CCC3 |
| 4.72 | 4.80 | – | – | COc1ccc(C(=O)Nc2ccccc2C(=O)NC(C(=O)NNC(=O)c2ccccc2O)C(C)C)cc1 (configuration not stated) |
| < 4.00 | 4.07 | – | – | Cc1nc(SCC(=O)c2ccc(O)c(O)c2)c(C#N)c(CC(C)C)c1C(N)=O |
| 3.79 | 3.60 | – | – | O=S(=O)(Nc1ccc(Br)cc1)c1ccc(Sc2ccc(S(=O)(=O)Nc3ccc(Br)cc3)cc2)cc1 |
| 4.04 | 4.70 | – | – | NC(=O)NN=C1c2cc(S(=O)(=O)NCc3ccco3)ccc2-c2ccc(S(=O)(=O)NCc3ccco3)cc21 |
| < 4.00 | < 4.00 | – | – | CCCn1c(=O)c(C(=O)NNC(=O)COc2ccccc2)c(O)c2ccccc21 |
| < 4.00 | < 4.00 | – | – | COc1cc(C(NC(=O)c2ccco2)NC(=O)c2ccco2)ccc1OCc1ccccc1 |
| < 4.00 | < 4.00 | – | – | Cn1c(=O)[nH]c(=O)c2c1nc(SCC(O)CCl)n2CC(O)COc1ccc(Cl)cc1 (configuration not stated) |
| 4.00 | 4.00 | – | – | O=C(Nc1cccc(O)c1)c1cc(C(=O)Nc2cccc(O)c2)cc(N2C(=O)c3ccccc3C2=O)c1 |
| < 4.00 | < 4.00 | – | – | CCCCCCc1nc2ccccc2c(=O)n1NC(=O)c1c(O)c2ccccc2n(CC)c1=O |
| < 4.00 | 4.10 | – | – | CCCn1c(N/N=C/c2cc(Br)ccc2O)nc2c1c(=O)[nH]c(=O)n2C |
| < 4.00 | 4.00 | – | – | CCc1nc2sc3c(c2c2nnc(SCC(=O)NNC(=O)c4ccc(OC)cc4)n12)CCCC3 |
| < 4.00 | 4.00 | – | – | CCc1cccc2c(SCC(=O)NNC(=O)c3ccccc3[N+](=O)[O-])nc(-c3ccc(F)cc3)nc12 |
| 3.67 | 3.65 | – | – | O=C(O)COc1ccccc1/C=N/Nc1nncc(-c2ccccc2)n1 |
| 4.74 | 4.89 | – | – | COc1ccc(Nc2nc(NCc3ccco3)nc(N/N=C/c3ccc(Br)cc3)n2)cc1 |
| 5.15 | 5.40 | – | – | O=C(O)c1cc(-c2ccc(/C=N/Nc3nc4nonc4nc3Nc3ccccc3F)o2)ccc1Cl |
| 3.72 | 3.70 | – | – | CCN(CC)c1nc(N/N=C/c2ccc([N+](=O)[O-])cc2)nc(Nc2ccc(C)c(Cl)c2)n1 |
| 4.27 | 4.34 | – | – | O=C(NNC(=O)c1c(O)c2ccccc2[nH]c1=O)c1ccccc1[N+](=O)[O-] |

| pIC50 [1] | pIC50 [2] | pIC50 [3] | pIC50 [4] | Structure (SMILES) |
| --- | --- | --- | --- | --- |
| 5.48 | 6.00 | – | – | O=C(NNC(=O)c1c(O)c2ccccc2[nH]c1=O)c1cccc([N+](=O)[O-])c1 |
| 4.00 | 4.55 | – | – | O=C(NNC(=O)c1c(O)c2ccccc2[nH]c1=O)c1ccccc1 |
| 4.17 | 4.49 | – | – | O=C(Nc1ccccc1C(=O)O)c1ccc(C(=O)Nc2ccccc2C(=O)O)cc1 |
| 3.74 and 3.86 | 3.74 and 3.72 | – | – | O=C(O)c1ccc(NCN2C(=O)c3ccc([N+](=O)[O-])cc3C2=O)cc1 |
| 4.31 | 4.74 | – | – | COc1ccc(C(=O)NNC(=O)c2cc3ccccc3cc2O)cc1 |
| < 4.00 | < 4.00 | – | – | O=C(/C=C/c1ccc2c(c1)OCO2)c1ccccc1O |
| < 4.00 | < 4.00 | – | – | COc1cc(C(=O)/C=C/c2ccc3c(c2)OCO3)cc(OC)c1OC |
| 5.70 | 5.70 | – | – | COc1cccc(/C=C/C(=O)c2ccccc2)c1O |
| 4.15 | 4.59 | – | – | O=C(N/N=C/c1ccc(O)c(O)c1)c1ccccc1O |
| 4.10 | 4.15 | – | – | COc1ccc(NC(=O)c2cccc(S(=O)(=O)Nc3ccc(C(=O)O)cc3)c2)cc1 |
| 3.17 | 3.17 | – | – | CC(=O)Nc1ccc2c(c1)OCCOCCOc1cc(NC(C)=O)ccc1OCCOCCO2 |
| 4.54 | 4.54 | – | – | COc1cc([N+](=O)[O-])cc(/C=N/Nc2nc(Nc3ccccc3)nc(Nc3ccccc3)n2)c1O |
| 3.82 | 3.89 | – | – | O=C(N/N=C/c1cccc([N+](=O)[O-])c1)c1cccc(C(=O)N/N=C/c2cccc([N+](=O)[O-])c2)n1 |
| 4.43 | 4.77 | – | – | CCn1c(=O)c(C(=O)NNC(=O)c2cccc([N+](=O)[O-])c2)c(O)c2ccccc21 |
| < 4.00 | < 4.00 | – | – | COc1cc(C(=O)/C=C/c2ccc3c(c2)OCO3)ccc1O |
| 3.24 | 3.27 | – | – | O=C(CNC(=O)c1ccc(Cl)cc1)OCC(=O)c1ccc([N+](=O)[O-])cc1 |
| 4.54 | 4.74 | – | – | O=C(COc1ccc2ccccc2c1)NNC(=O)c1ccccc1O |
| < 4.00 | 4.24 | – | – | O=C1Nc2ccccc2/C1=N/NC(=O)c1ccccc1O |
| 4.28 | 4.52 | – | – | O=C(NNC(=O)c1c(O)c2ccccc2[nH]c1=O)c1ccccc1F |
| < 3.00 | 3.34 | – | – | O=C(N/N=C/c1c[nH]c2ccccc12)c1ccc(O)c(O)c1 |
| 4.07 | 4.22 | – | – | O=C(CSc1nc2ccccc2c(=O)n1CC1CCCO1)NNC(=O)c1ccccc1O (configuration not stated) |
| < 4.00 | < 4.00 | – | – | COc1ccc(NC(=O)CSc2nc(-c3ccncc3)nn2CC(=O)NCc2ccco2)cc1 |
| 4.06 | 4.00 | – | – | Cn1c(SCC(=O)NNC(=O)c2cccc(O)c2)nc2sc3c(c2c1=O)CCC3 |
| 4.80 | 4.96 | – | – | Oc1ccc(Br)cc1/C=N/Nc1nc2nonc2nc1Nc1ccc(F)cc1 |
| 4.55 | 4.92 | – | – | O=C(CSc1nc(SCC(=O)NCc2ccco2)nc(SCC(=O)NCc2ccco2)n1)NCc1ccco1 |
| < 4.00 | < 4.00 | – | – | Cc1ccc(O)c(/C=N/Nc2nc3c(c(=O)[nH]c(=O)n3C)n2Cc2ccccc2)c1 |

| Structure (SMILES) | pIC50 [1] | pIC50 [2] | pIC50 [3] | pIC50 [4] |
| --- | --- | --- | --- | --- |
| O=C(CCC(=O)Nc1ccc([N+](=O)[O-])c(C(F)(F)F)c1)Nc1ccc([N+](=O)[O-])c(C(F)(F)F)c1 | 3.71 | 3.68 | – | – |
| Cc1ccc(NP(=O)(Oc2ccccc2)Oc2ccccc2)cc1 | < 3.00 | < 3.00 | – | – |
